A word on the inhibition: it is the change of the read-out against control, counted positive when it falls.

The subject of one data set is breast cancer cell A435. As to the kind of experiment: Inhibition of tumor cell proliferation in vitro (MTT), A435. It is filed as cell-based. The settings on record: 48 hrs, read-out: Growth inhibition in vitro IC50. The protocol: (§1) The activity assay of the compounds of the invention was carried out through common methods in the art. Commercially available Sunitinib was used as positive control, and lung cancer cell H460, colon cancer cell COLO205 and HT29, breast cancer cell A435 were used as exemplary tumor cells. The tested compounds were prepared by the methods disclosed in the Examples above.
(§2) A certain amount (100 μL/well, 0.5−1×10^4 cells/mL) of lung cancer cell H460, colon cancer cell COLO205, and breast cancer cell A435, etc. in logarithmic growth phase were seeded in a 96-well plate, and incubated in an incubator for 24 hrs at 37° C. and 5% CO2. Afterwards, tested compounds and positive control (20 μL/wells) were added, followed by 80 µL of 10% serum medium, and then the tumor cells were incubated for further 48 hrs at 37° C. and 5% CO2. Afterwards, MTT (5 mg/mL) was added to the 96-well plates (20 μL/well), and the cells were incubated for another 4 h. After removing the supernatant, the cells were dissolved with DMSO (150 μL/well) and measured with a microplate reader at 490 nm.

Another data set relates to Fibroblast NIH/3T3. Kind of data set: Inhibition of fibroblast NIH/3T3 proliferation (MTT). It is filed as cell-based. Conditions: Mus musculus, NIH3T3, 48 h, read-out: Inhibition of NIH/3T3 cell proliferation in vitro IC50. From the text:
The method commonly used at present for studying fibroblast proliferation associated diseases, i.e., for studying tissue and organ fibrosis, is measuring effects of test compounds on NIH/3T3 cell proliferation (Gao Z. M., Wan K., Effect of inhibition of NIH/3T3 cell proliferation by Cantharidin on prevention and treatment of organ and tissue fibrosis. Chinese Journal of Clinical Rehabilitation, 2004 (2). Tao Y. Y., Wang X. L., Effects of Salvianolic Acid-B on TGF-β1/ERK Signaling Transduction in NIH/3T3 Fibroblast. Journal of Capital Medical University, 2007 (2)).
Fibroblast NIH/3T3 in logarithmic growth phase was seeded in a 96-well plate, by a certain number of cells (100 μL/well, 0.5−1×10^4 cells/mL). After incubating for 24 h, the screened samples (20 μl/well) were added (directly added after cell suspension was seeded in the plate), incubated for further 48 h at 37° C. and 5% CO2. Afterwards, MTT (5 mg/mL) was added to the 96-well plate (20 μL/well). The cells were incubated for another 4 h, and then dissolved with DMSO (150 μL/well) and measured with a microplate reader at 490 nm. The inhibition rate and IC50 were calculated.

Data set [1] relates to colon cancer cell COLO205. As to the kind of experiment: Inhibition of tumor cell proliferation in vitro (MTT), COLO205. It is filed as cell-based. The settings on record: Homo sapiens, COLO 205, 48 hrs, read-out: Growth inhibition in vitro IC50. As to the method:
as §1, §2

Another data set deals with Lung cancer cell H460. As to the kind of experiment: Inhibition of tumor cell proliferation in vitro (MTT), H460. The data set is classed as cell-based. Conditions: Homo sapiens, NCI-H460, 48 hrs, read-out: Growth inhibition in vitro IC50. As to the method: as §1, §2
The test system of data set [2] is human colon cancer HT-29 cells transplanted in nude mice. As to the kind of experiment: Growth inhibition of human cancer HT-29 cells transplanted in nude mice. The data set is classed as in vivo. Conditions: for Body weight d0 / Body weight d21: nude mice with HT-29 tumor; for Body weight d0: d0, time of administration in separate cages; for Body weight d0 / TV d0: 30 mg/kg group; for Body weight d21 / T/C (%) / RTV / TV d21: 30 mg/kg intragastrically once a day for 21 days; for T/C (%): relative tumor proliferation rate TRTV/CRTV; for RTV: relative tumor volume TVt/TV0; for TV d0: tumor volume at d0, time of administration in separate cages; for TV d21: tumor volume at d21. The protocol:
A piece of tumor tissue in vigorous growth phase was obtained and cut into the size of about 1.5 mm^3, and subcutaneously inoculated into the right axillary region of nude mice aseptically. Diameters of transplanted tumors in nude mice were measured with a vernier caliper. After tumors grew to 100˜300 mm^3, the animals were randomly divided into 6 groups: model control group, Sunitinib group (30 mg/kg), Compound 1 group (30 mg/kg), Compound 2 group (30 mg/kg), Compound 3 group (30 mg/kg), Compound 4 group (30 mg/kg). […] Meanwhile, the negative control group was administered equivalent amount of sterile saline. The dynamic observation of antitumor effects of compounds 1-4 and Sunitinib was performed by measuring tumor diameters. […] The general behavior of nude mice was observed and recorded daily. (1) Tumor volume (TV), calculated by the equation: […] wherein a, b represent length and width, respectively. […] RTV=TVt/TV0 wherein TV0 represents the tumor volume at the beginning of administration in separated cages (ie. d0), TVt represents the tumor volume of each measurement. […] T/C %=(TRTV/CRTV)×100% TRTV: RTV of positive control group and each test compound group. CRTV: RTV of model control group.

Data set [3] concerns human breast cancer cell MDA-MB-231. Kind of data set: Anti-tumor activity assay (MTT), MDA-MB-231. The data set is classed as cell-based. Conditions: 48 hrs, samples stored at −20° C. for one week, read-out: Inhibition rate; for inhibition at 0.1 µg/mL: final concentration 0.1 μg/mL; for inhibition at 1 µg/mL: final concentration 1 μg/mL; for inhibition at 10 µg/mL: final concentration 10 μg/mL. The protocol: (§3) These tests were carried out using conventional operations in the art. Specifically, the following materials and methods were employed:
(§4) Human cervical cancer cell Hela, human liver cancer cell SMMC-7721, human lung cancer cell A549, poorly differentiated human gastric adenocarcinoma cell BGC-823, human breast cancer cell MDA-MB-231.
(§5) To a bottle containing exponential growth phase cells in good condition, 0.25% trypsin solution was added. […] The cell suspension was seeded in a 96-well plate with an amount of 100 μL/well, incubated in a CO2 incubator for 24 hrs. 20 μL/well of tested compounds were added, followed by […], of 10% serum medium, and incubated for 48 hrs. 20 μL/well of MTT (5 mg/mL) was added to the 96-well plate, and the cells were incubated for 4 hrs in the incubator. After removing the supernatant, 150 μL/well of DMSO was added, and the cells were shaked in a horizontal swing bed for 10 minutes. Optical density value (OD value) of each well was measured with an ELISA analyzer at 490 nm, and cell inhibition rate was calculated. The corresponding solvent was used as negative control, and paclitaxel was used as positive control.

Data set [4] concerns poorly differentiated human gastric adenocarcinoma cell BGC-823. As to the kind of experiment: Anti-tumor activity assay (MTT), BGC-823. The data set is classed as cell-based. The settings on record: 48 hrs, samples stored at −20° C. for one week, read-out: Inhibition rate; for inhibition at 0.1 µg/mL: final concentration 0.1 μg/mL; for inhibition at 1 µg/mL: final concentration 1 μg/mL. As to the method:
as §3, §4, §5

Data set [5] has as its system human liver cancer cell SMMC-7721. As to the kind of experiment: Anti-tumor activity assay (MTT), SMMC-7721. The settings on record: 48 hrs, samples stored at −20° C. for one week, read-out: Inhibition rate; for inhibition at 0.1 µg/mL: final concentration 0.1 μg/mL; for inhibition at 1 µg/mL: final concentration 1 μg/mL. It is filed as cell-based. The protocol:
as §3, §4, §5

Data set [6] deals with Human cervical cancer cell Hela. Kind of data set: Anti-tumor activity assay (MTT), Hela. The settings on record: 48 hrs, samples freshly prepared with DMSO, read-out: Inhibition rate; for inhibition at 0.1 µg/mL: final concentration 0.1 μg/mL; for inhibition at 1 µg/mL: final concentration 1 μg/mL; for inhibition at 10 µg/mL: final concentration 10 μg/mL. The data set is classed as cell-based. As to the method: as §3, §4, §5

The test system of data set [7] is human lung cancer cell A549. Kind of data set: Anti-tumor activity assay (MTT), A549. The data set is classed as cell-based. Conditions: 48 hrs, samples stored at −20° C. for one week, read-out: Inhibition rate; for inhibition at 0.1 µg/mL: final concentration 0.1 μg/mL; for inhibition at 1 µg/mL: final concentration 1 μg/mL. As to the method: as §3, §4, §5

pIC50: −log10 of the molar value.

Regarding `Cc1[nH]c(/C=C2\C(=O)Nc3ccc(F)cc32)c(C)c1C(=O)NCC1CCNCC1` [Compound 4], the pIC50 in the data set with breast cancer cell A435 is 6.66. The pIC50 in the data set on Fibroblast NIH/3T3 is 5.93. Besides, the pIC50 in data set [1] is 6.40. In the data set on Lung cancer cell H460, the pIC50 was 6.24. For the same compound, in data set [2], the “Body weight d0” value is recorded as 20.0 ± 2.2 g, the “Body weight d21” value amounted to 20.3 ± 1.5 g, the “T/C (%)” value was 41.0% and the RTV was 3.6 ± 3.2. In addition, in data set [2], the “TV d0” value stood at 195.0 ± 67.4 mm^3 and the “TV d21” value was 791.7 ± 815.0 mm^3.
On to `Cc1[nH]c(/C=C2\C(=O)Nc3ccc(F)cc32)c(C)c1C(=O)NC1CCN(Cc2ccccc2)C1` (stereo not shown) [Compound 6, N-(1-benzylpyrrolidin-3-yl)-5-(5-fluoro-2-oxo-1,2-dihydroindole-3-methylene)-2,4-dimethyl-1H-pyrrole-3-formamide], for which the pIC50 in the data set on breast cancer cell A435 is 7.06; in the data set with Fibroblast NIH/3T3, 6.16; in data set [1], 6.66; in the data set on Lung cancer cell H460, 6.48.
Taken in the same sequence, the figures for `Cc1[nH]c(/C=C2\C(=O)Nc3ccc(F)cc32)c(C)c1C(=O)Nc1ccc(N(C)C)cc1` [Compound 7, N-[4-(dimethylamino)phenyl]-5-(5-fluoro-2-oxo-1,2-dihydroindole-3-methylene)-2,4-dimethyl-1H-pyrrole-3-formamide] were 7.09, 6.30, 6.77 and 6.64.
Taken in the same sequence, the figures for `Cc1[nH]c(/C=C2\C(=O)Nc3ccc(F)cc32)c(C)c1C(=O)NCC(=O)Nc1ccc(N(C)C)cc1` [Compound 8, N-{2-[4-(dimethylamino)anilino]-2-oxoethyl}-5-(5-fluoro-2-oxo-1,2-dihydroindole-3-methylene)-2,4-dimethyl-1H-pyrrole-3-formamide] were 7.04, 6.05, 6.80 and 6.77.
`CCN1CCCC1CNC(=O)CNC(=O)c1c(C)[nH]c(/C=C2\C(=O)Nc3ccc(F)cc32)c1C` (stereo not shown) [Compound 11, N-{2-[(1-ethylpyrrolidin-2-yl)methylamino]-2-oxoethyl}-5-(5-fluoro-2-oxo-1,2-dihydroindole-3-methylene)-2,4-dimethyl-1H-pyrrole-3-formamide]: the pIC50 in the data set with breast cancer cell A435 is 6.82; in [1] it was 6.55; with Lung cancer cell H460, 6.39.
As to `CCN1CCCC1CNC(=O)C(C)NC(=O)c1c(C)[nH]c(/C=C2\C(=O)Nc3ccc(F)cc32)c1C` (stereo not shown) [Compound 12, N-{2-[(1-ethylpyrrolidin-2-yl)methylamino]-1-oxoprop-2-yl}-5-(5-fluoro-2-oxo-1,2-dihydroindole-3-methylene)-2,4-dimethyl-1H-pyrrole-3-formamide], the pIC50 in the data set with breast cancer cell A435 was 6.80; in data set [1], 6.51; in the data set with Lung cancer cell H460, 6.36.
For `CC(=O)O[C@H]1C(=O)[C@@]2(C)[C@H]([C@H](OC(=O)c3ccccc3)[C@]3(O)C[C@H](OC(=O)[C@H](O)[C@@H](NC(=O)c4ccccc4)c4ccccc4)C(C)=C1C3(C)C)[C@]1(OC(C)=O)CO[C@@H]1C[C@@H]2O` [Paclitaxel, reference compound], the inhibition at 0.1 µg/mL is 5.9% in [3]; 85.1% in [4]; -6.71% in data set [5]; 79.7% in data set [6]; 20.1% in [7]. Moreover, the inhibition at 1 µg/mL was 4.9% in data set [3]; 86.6% in data set [4]; -6.59% in data set [5]; 78.1% in [6]; 23.8% in [7]. The inhibition at 10 µg/mL in [3] is 29.5%; in data set [6] it was 72.7%.
For `CCN(CC)CCNC(=O)c1c(C)[nH]c(/C=C2\C(=O)Nc3ccc(F)cc32)c1C` [Sunitinib, reference compound], the inhibition at 0.1 µg/mL in data set [3] is 6.4%; in [4], 9.53%; in data set [5] it was -38.8%; in [6], -0.21%; in data set [7] it was 7.29%. Moreover, the inhibition at 1 µg/mL in [3] was 28.9%; in data set [4], 19.2%; in data set [5], -12.3%; in [6] it was 24.7%; in data set [7], 29.1%. In addition, the inhibition at 10 µg/mL in [3] was 90.2%; in data set [4] (final concentration 10 μg/mL) it was 88.8%; in data set [5] (final concentration 10 μg/mL), 72.5%; in data set [6], 99.2%; in [7] (final concentration 10 μg/mL), 98.7%. In addition, the pIC50 in the data set on breast cancer cell A435 is 6.20; in [1], 6.26; in the data set with Lung cancer cell H460, 6.17. For the same compound, the “Body weight d0” value in [2] was 20.4 ± 2.0 g. In addition, the “Body weight d21” value in data set [2] is on record as 21.0 ± 1.9 g. Moreover, the “T/C (%)” value in data set [2] is recorded as 51.5%. The compound also registered an RTV in data set [2] of 4.6 ± 1.5. Further, in data set [2], the “TV d0” value is 198.2 ± 62.4 mm^3. In data set [2], the “TV d21” value was 911.8 ± 481.7 mm^3.
